Literature values, collected in patent US12624058B2, “Promoiety strategy to enhance drug activity” (UNIVERSITY OF SOUTHERN CALIFORNIA, priority 2020, dated 2026).

Legend:
multiple Ad types = settings: cell culture; read-out: EC50, replication of multiple Ad types
[1] = in vivo
Ad5 = settings: immunosuppressed Syrian hamster model
[2] = in vivo; remark: listed apart in the source

Compound | GI side effect (Ad viremia; phase II clinical trial) | reduction of Ad viremia (Ad viremia; preemptive treatment, pediatric and adult patients) | EC50 (multiple Ad types) [nM] | nephrotoxicity [1] | efficacy against Ad5 replication and pathogenesis (Ad5) | oral bioavailability [2] [%]
CCCCCCCCCCCCCCCCOCCCOP(=O)(O)CO[C@H](CO)Cn1ccc(N)nc1=O [BCV] | symptomatic GI irritation was observed | reduced Ad viremia in some of these patients however, the result was not statistically significant | ~20 | little or no nephrotoxicity | effective | –
Nc1ccn(C[C@@H](CO)OCP(=O)(O)O)c(=O)n1 [CDV, (S)-1-(3-hydroxy-2-phosphonomethoxypropyl)cytosine] | – | – | – | causes nephrotoxicity | effective | < 5
